From the supplement of paper PMC4862054

How the values were obtained:
[1] = tested on: CAL-120; experiment: normalised viability (% of control), CellTiter-Blue; higher = more viable cells (100 = DMSO, 0 = benzethonium chloride kill control); conditions: 1 nM; incubation time: 72 h
Summary of the method: (§1)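 Vehicle (100) and a positive kill control (0) anchored the normalisation of each plate, and Z'-factor was used for quality control. Breast cancer cell lines in 20 µl suspension were incubated 72 h over compound in 5 µl medium in 384-well plates, followed by CellTiter-Blue at 560/590 nm. The value is normalised viability at a single listed concentration of the series.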

[2] = tested on: CAL-148; experiment: as above; conditions: 1 nM; incubation time: 72 h
Summary of the method: as §1

[3] = tested on: Hs578T; experiment: as above; conditions: 1 nM; incubation time: 72 h
Summary of the method: as §1

[4] = tested on: HDQ-P1; experiment: as above; conditions: 1 nM; incubation time: 72 h
Summary of the method: as §1

[5] = tested on: MFM-223; experiment: as above; conditions: 1 nM; incubation time: 72 h
Summary of the method: as §1

[6] = tested on: HCC1937; experiment: as above; conditions: 1 nM; incubation time: 72 h
Summary of the method: as §1

[7] = tested on: CAL-120; experiment: drug sensitivity score (DSS), CellTiter-Blue viability (DSS (AUC-based score)); higher = stronger viability inhibition; extreme values may be limits of the assay; conditions: incubation time: 72 h
Protocol: (§2)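 DSRT with the CellTiter-Blue (resazurin reduction) viability readout, fluorescence 560/590 nm, 72 h incubation. Plates were normalised to DMSO and benzethonium chloride controls. DSS is computed from the area under the fitted dose-response curve (5 or 9 concentrations).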

[8] = tested on: BT-474; experiment: as above; conditions: incubation time: 72 h
Protocol: as §2

[9] = tested on: MDA-MB-231; experiment: as above; conditions: incubation time: 72 h
Protocol: as §2

[10] = tested on: MDA-MB-468; experiment: as above; conditions: incubation time: 72 h
Protocol: as §2

[11] = tested on: CAL-148; experiment: as above; conditions: incubation time: 72 h
Protocol: as §2

[12] = tested on: MDA-MB-453; experiment: as above; conditions: incubation time: 72 h
Protocol: as §2

[13] = tested on: CAL-85-1; experiment: as above; conditions: incubation time: 72 h
Protocol: as §2

[14] = tested on: CAL-51; experiment: as above; conditions: incubation time: 72 h
Protocol: as §2

[15] = tested on: HCC1143; experiment: as above; conditions: incubation time: 72 h
Protocol: as §2

[16] = tested on: Hs578T; experiment: as above; conditions: incubation time: 72 h
Protocol: as §2

[17] = tested on: HDQ-P1; experiment: as above; conditions: incubation time: 72 h
Protocol: as §2

[18] = tested on: BT-549; experiment: as above; conditions: incubation time: 72 h
Protocol: as §2

[19] = tested on: MFM-223; experiment: as above; conditions: incubation time: 72 h
Protocol: as §2

[20] = tested on: MDA-MB-436; experiment: as above; conditions: incubation time: 72 h
Protocol: as §2

[21] = tested on: SK-BR-3; experiment: as above; conditions: incubation time: 72 h
Protocol: as §2

[22] = tested on: DU-4475; experiment: as above; conditions: incubation time: 72 h
Protocol: as §2

[23] = tested on: HCC1599; experiment: as above; conditions: incubation time: 72 h
Protocol: as §2

[24] = tested on: HCC1937; experiment: as above; conditions: incubation time: 72 h
Protocol: as §2

[25] = tested on: SK-BR-3; conditions: 72 h
Summary of the method: (§3)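 Rows with a drug sensitivity score of zero were dropped, and EC50 was taken from the fitted percent-inhibition dose-response curve, censored at the highest concentration. Data were normalised on each plate to vehicle and a positive kill control and checked by Z'-factor. The assay seeded breast cancer cell lines in 20 µl onto 384-well plates pre-loaded with compound in 5 µl medium for 72 h, then added 2.5 µl CellTiter-Blue for 2 h at 37 °C and read fluorescence at 560/590 nm.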

[26] = tested on: HCC1937; conditions: 72 h
Summary of the method: as §3

SMILES	normalised viability [1]	normalised viability [2]	normalised viability [3]	normalised viability [4]	normalised viability [5]	normalised viability [6]	drug sensitivity score [7]	drug sensitivity score [8]	drug sensitivity score [9]	drug sensitivity score [10]	drug sensitivity score [11]	drug sensitivity score [12]	drug sensitivity score [13]	drug sensitivity score [14]	drug sensitivity score [15]	drug sensitivity score [16]	drug sensitivity score [17]	drug sensitivity score [18]	drug sensitivity score [19]	drug sensitivity score [20]	drug sensitivity score [21]	drug sensitivity score [22]	drug sensitivity score [23]	drug sensitivity score [24]	EC50, CellTiter-Blue viability [25]	EC50, CellTiter-Blue viability [26]
C[C@H]1C[C@@H]2[C@H]([C@@H](O)C[C@@]3(C)[C@H]2CC[C@]3(O)C(=O)CO)[C@@]2(C)C=CC(=O)C=C12 [Methylprednisolone]	81.9%	105%	122%	97.7%	92.7%	83.7%	0	0	0	0	0	6.93	0	0	0	0	0	3.25	0	0	0	0	0	0	–	–
Nc1nc2[nH]cc(CCc3ccc(C(=O)N[C@@H](CCC(=O)O)C(=O)O)cc3)c2c(=O)[nH]1 [Pemetrexed]	87%	113%	114%	107%	93.1%	84.5%	1.61	0	0	0	0	0	5.19	0	3.58	0	0	0	0	0	9.22	0	0	0	116 nM	–
COc1cc2nccc(Oc3ccc(NC(=O)Nc4cc(C)on4)c(Cl)c3)c2cc1OC [Tivozanib]	106%	103%	103%	97.6%	100%	92.5%	2.1	2.36	3.77	0	0	5.3	0	2.51	0	2.98	5.92	2.11	10.4	0	1.12	0	0.494	0	4270 nM	–
CC1=C(/C=C/C(C)=C/C=C/C(C)=C/C(=O)O)C(C)(C)CCC1 [Tretinoin]	86.9%	103%	116%	114%	98%	117%	0	0	0	0	4.65	0	0	0	0	0	0	0	0	0	7.44	0	3.35	0	731 nM	–
C1CN1c1nc(N2CC2)nc(N2CC2)n1 [Triethylenemelamine]	103%	108%	108%	109%	100%	86.6%	0	0	2.85	0	0.801	1.28	0	0	0	0	0	1.53	0	0	0	0	0	0	–	–
Oc1ncc(N(CCCl)CCCl)c(O)n1 [Uracil mustard]	82.3%	103%	109%	110%	97.4%	101%	0	0	0	0	0	0	0	0	0	0	0	0	0	0	0	0	0	3.7	–	962 nM
CCCS(=O)(=O)Nc1ccc(F)c(C(=O)c2c[nH]c3ncc(-c4ccc(Cl)cc4)cc23)c1F [Vemurafenib]	95.3%	98.4%	112%	96.3%	90.7%	119%	0	0	0	0	0	0	2.25	0	0	1.04	1.56	0	0	0	0	17.3	0	0.544	–	7820 nM
